Reference: patent US10039845B2, “Labeled inhibitors of prostate specific membrane antigen (PSMA) biological evaluation, and use of imaging agents” (THE JOHNS HOPKINS UNIVERSITY, priority 2007, dated 2018)

Assays:
PSMA = biological target: T1, PSMA (Homo sapiens, UniProt Q04609); assay: NAALADase assay (NAAG hydrolysis, LNCaP cell extracts); format: biochemical; conditions: for Ki: LNCaP cell extracts, Cheng-Prusoff conversion, read-out: Ki (PSMA inhibitory activity)
T1 construct: LNCaP cell extracts were prepared by sonication in NAALADase buffer; endogenous in cells; host or cells: LNCaP cell extract (sonicated in 50 mM Tris pH 7.4, 0.5% Triton X-100)
Experimental: The relative binding affinities of L1-L7 and ReL1-ReL7, were determined using the N-acetylated-α-linked acidic dipeptidase (NAALADase) assay as previously described.
NAAG hydrolysis was performed essentially as described previously (Robinson, M. B.; et al. J Biol Chem 1987, 262, 14498-14506; Lupold, S. E.; et al. Cancer Res 2002, 62, 4029-4033.). In short, LNCaP cell extracts were prepared by sonication in NAALADase buffer [50 mM Tris (pH 7.4) and 0.5% Triton X-100]. Cell lysates were incubated with or without inhibitor at 37° C. for 10 minutes. Following the incubation the radiolabeled substrate N-acetyl-L-aspartyl-L-(3,4-^3H)glutamate (NEN Life Science Products, Boston, Mass.) was added to a final concentration of 30 nM at 37° C. for 10-15 min. The reaction was stopped by the addition of an equal volume of ice-cold 100 mM sodium phosphate and 2 mM EDTA. Products were partitioned by AG 1-X8 formate resin (Bio-Rad Laboratories) anion exchange chromatography, eluted with 1 M sodium formate, and quantified by liquid scintillation counting. […] Assays were performed in triplicate with the entire inhibition study being repeated at least once to confirm affinity and mode of inhibition. Data were collected during linear phase of hydrolysis (i.e., <20% cleavage of total substrate). Enzyme inhibitory constants (Ki values) were generated using the Cheng-Prusoff conversion (Cheng, Y.; Prusoff, W. H. Biochem Pharmcol 1973, 22, 3099-3108).

[1] = Metabolite studies (HPLC of tissue extracts, plasma, urine); format: in vivo, mice
Experimental: Mice were sacrificed at either 30 min or 1 h postinjection by cervical dislocation and their blood and selected organs were removed. Blood samples were withdrawn using heparinized syringes and tissues were placed on ice prior to manual homogenization in PBS, pH 7.4. Plasma and tissue homogenates in PBS were centrifuged for 2 min at 13,000×g at ambient temperature. A portion of the supernatant was diluted to 4 mL in 8 M urea containing 50 mg citric acid. Urine samples were added directly to 4 mL of the acidified urea solution. Samples then underwent separation by HPLC as previously described (Hilton, J.; et al. Nucl Med Biol 2000, 27, 627-630). Briefly, the 4 mL sample in 8 M acidified urea was passed through a capture column (Strata-X, 19×4.4 mm, Phenomenex, Torrance, Calif.) at 2 mL/min followed by 1% acetonitrile in water to wash plasma proteins from the column. The effluent from the capture column, containing only highly polar components, flowed through a dual BGO detector (Bioscan, Washington, D.C.) operating in the […]. The solvent was then switched to 30% acetonitrile:50 mM phosphate buffer at pH 2.4 (2 mL/min) for elution of the radiolabeled components previously bound to the capture column onto the analytical column (Synergi Polar-RP 250×4.6 mm 10 micron particle size Phenomenex).

[2] = system: PSMA+ PC3 PIP and PSMA− PC3 flu xenografts; conditions: for PIP (PSMA+) tumor uptake on SPECT-CT: SCID mice, 0.5-1 mCi i.v., imaged at 45 min p.i.; for uptake in normal organs (gallbladder, liver, kidneys) on SPECT-CT: mouse, in vivo, iv; for tumor contrast on late SPECT-CT images: several hours after injection (3.5-4 h uptake period)
[3] = system: PSMA+ PC3 PIP and PSMA− PC3 flu xenografts; conditions: mouse, in vivo

T1 sequence (Q04609 whole entry): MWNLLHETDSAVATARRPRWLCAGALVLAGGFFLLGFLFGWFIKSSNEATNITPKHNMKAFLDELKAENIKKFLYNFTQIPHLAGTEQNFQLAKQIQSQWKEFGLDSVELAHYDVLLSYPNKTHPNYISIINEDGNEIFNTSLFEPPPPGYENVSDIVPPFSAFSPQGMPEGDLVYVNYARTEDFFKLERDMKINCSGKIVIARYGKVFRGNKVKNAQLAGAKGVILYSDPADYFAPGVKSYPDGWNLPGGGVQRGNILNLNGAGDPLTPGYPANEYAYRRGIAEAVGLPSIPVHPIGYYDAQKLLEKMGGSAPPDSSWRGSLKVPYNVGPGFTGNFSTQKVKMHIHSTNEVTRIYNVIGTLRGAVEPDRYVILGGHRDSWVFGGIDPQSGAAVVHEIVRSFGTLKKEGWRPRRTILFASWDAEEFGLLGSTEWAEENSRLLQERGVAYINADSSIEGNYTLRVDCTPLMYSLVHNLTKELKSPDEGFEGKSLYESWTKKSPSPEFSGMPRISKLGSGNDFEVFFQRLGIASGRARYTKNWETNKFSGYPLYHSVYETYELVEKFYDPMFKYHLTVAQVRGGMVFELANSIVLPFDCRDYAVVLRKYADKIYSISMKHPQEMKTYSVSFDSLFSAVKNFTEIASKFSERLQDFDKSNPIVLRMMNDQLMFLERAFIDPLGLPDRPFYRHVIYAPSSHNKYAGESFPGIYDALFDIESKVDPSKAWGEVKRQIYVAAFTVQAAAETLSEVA

Compound: O=C(O)CCC(NC(=O)NC(CCCCN(Cc1ccccn1)Cc1ccccn1)C(=O)O)C(=O)O.[Br-].[C-]#[O+].[C-]#[O+].[C-]#[O+].[Re+] (stereo not drawn) [ReL6, Tricarbonyl(2-{3-[5-(bis-pyridin-2-ylmethyl-amino)-1-carboxy-pentyl]-ureido}-pentanedioic acid)rhenium bromide]
- Ki (PSMA): 200 nM

Compound: O=C(O)CC[C@H](NC(=O)N[C@@H](CCCCNC(=O)CCCCCCC(=O)N[C@@H](CCCCN(Cc1ccccn1)Cc1ccccn1)C(=O)O)C(=O)O)C(=O)O.[99Tc+].[C-]#[O+].[C-]#[O+].[C-]#[O+] [[^99mTc]L1]
- chromatographed radioactivity as the parent compound ([1]; all other tissue extracts, plasma and urine at 30 and 60 min postinjection): 100%
- extracted radioactivity as a polar metabolite ([1]; mouse kidney extracted 60 min after injection): 2%
- PIP (PSMA+) tumor uptake on SPECT-CT [2]: strongly positive PIP tumor
- uptake in normal organs (gallbladder, liver, kidneys) on SPECT-CT [2]: gallbladder uptake and clear visualization of the kidneys
- tumor contrast on late SPECT-CT images [2]: higher contrast of tumor with respect to background

Compound: O=C(O)CCC(NC(=O)NC(CCCCNC(=O)CCCCCCC(=O)NCCCCCCN(Cc1ccccn1)Cc1ccccn1)C(=O)O)C(=O)O (centres unmarked) [Compound L7, 2-[3-(5-{7-[6-(Bis-pyridin-2-ylmethyl-amino)-hexylcarbamoyl]-heptanoylamino}-1-carboxy-pentyl)-ureido]-pentanedioic acid]
- Ki (PSMA): 0.45 nM

Compound: O=C(O)CCC(NC(=O)NC(CCCCNC(=O)CCCCCCC(=O)NCCCCC(C(=O)O)N(Cc1ccccn1)Cc1ccccn1)C(=O)O)C(=O)O (centres unmarked) [Compound L3, 2-[3-(5-{7-[5-(Bis-pyridin-2-ylmethyl-amino)-5-carboxy-pentylcarbamoyl]-heptanoylamino}-1-carboxy-pentyl)-ureido]-pentanedioic acid]
- Ki (PSMA): 1.08 nM

Compound: O=C(O)CC[C@H](NC(=O)N[C@@H](CCCCN(Cc1ccccn1)Cc1ccccn1)C(=O)O)C(=O)O.[99Tc+].[C-]#[O+].[C-]#[O+].[C-]#[O+] [[^99mTc]L6]
- PIP (PSMA+) tumor uptake on SPECT-CT [2]: no PIP tumor-specific uptake

Compound: O=C(O)CCC(NC(=O)NC(CCCCNC(=O)CCCCCCC(=O)NCCCCCCN(Cc1ccccn1)Cc1ccccn1)C(=O)O)C(=O)O.[Br-].[C-]#[O+].[C-]#[O+].[C-]#[O+].[Re+] (stereo not drawn) [ReL7, Tricarbonyl(2-[3-(5-{7-[6-(Bis-pyridin-2-ylmethyl-amino)-hexylcarbamoyl]-heptanoylamino}-1-carboxy-pentyl)-ureido]-pentanedioic acid)rhenium bromide]
- Ki (PSMA): 2.06 nM

Compound: O=C(O)CCC(NC(=O)NC(CCCCNC(=O)CCCCCCC(=O)NCCCCC(C(=O)O)N(Cc1ccccn1)Cc1ccccn1)C(=O)O)C(=O)O.[99Tc+].[C-]#[O+].[C-]#[O+].[C-]#[O+] (centres unmarked) [[^99mTc]L3]
- PIP (PSMA+) tumor uptake on SPECT-CT [2]: strong PIP tumor uptake
- uptake in normal organs (gallbladder, liver, kidneys) on SPECT-CT [2]: gallbladder uptake and clear visualization of the kidneys
- tumor contrast on late SPECT-CT images [2]: higher contrast of tumor with respect to background
- PIP:flu uptake ratio, held steady [3]: around 5

Compound: O=C(O)CCC(NC(=O)NC(CCCCNC(=O)CCCCCCCN(Cc1ccccn1)Cc1ccccn1)C(=O)O)C(=O)O (centres unmarked) [Compound L5, 2-(3-{5-[8-(Bis-pyridin-2-ylmethyl-amino)-octanoylamino]-1-carboxy-pentyl}-ureido)-pentanedioic acid]
- Ki (PSMA): 1.86 nM

Compound: O=C(O)CCC(NC(=O)NC(CCCCNC(=O)CCCCCCCN(Cc1ccccn1)Cc1ccccn1)C(=O)O)C(=O)O.[Br-].[C-]#[O+].[C-]#[O+].[C-]#[O+].[Re+] (stereo not drawn) [ReL5, Tricarbonyl(2-(3-{5-[8-(bis-pyridin-2-ylmethyl-amino)-octanoylamino]-1-carboxy-pentyl}-ureido)-pentanedioic acid)rhenium bromide]
- Ki (PSMA): 0.91 nM

Compound: O=C(O)CC[C@H](NC(=O)N[C@@H](CCCCNC(=O)CCCCCCC(=O)N[C@@H](CCCCN(Cc1ccc2ccccc2n1)Cc1ccc2ccccc2n1)C(=O)O)C(=O)O)C(=O)O.[99Tc+].[C-]#[O+].[C-]#[O+].[C-]#[O+] [[^99mTc]L2]
- PIP (PSMA+) tumor uptake on SPECT-CT [2]: weak PIP tumor uptake
- uptake in normal organs (gallbladder, liver, kidneys) on SPECT-CT [2]: strong gallbladder uptake and kidney uptake

Compound: O=C(O)CC[C@H](NC(=O)N[C@@H](CCCCNC(=O)CCCCCCCN(Cc1ccccn1)Cc1ccccn1)C(=O)O)C(=O)O.[99Tc+].[C-]#[O+].[C-]#[O+].[C-]#[O+] [[^99mTc]L5]
- PIP (PSMA+) tumor uptake on SPECT-CT [2]: qualitatively similar to [^99mTc]L4

Compound: Tricarbonyl (2-[3-(5-{7-[5-(bis-pyridin-2-ylmethyl-amino)-1-carboxy-pentylcarbamoyl]-heptanoylamino}-1-carboxy-pentyl)-ureido]-pentanedioic acid) rhenium bromide [ReL1]
- Ki (PSMA): 10.8 nM

Compound: O=C(O)CCC(NC(=O)NC(CCCCN(Cc1ccccn1)Cc1ccccn1)C(=O)O)C(=O)O (centres unmarked) [Compound L6, 2-{3-[5-(Bis-pyridin-2-ylmethyl-amino)-1-carboxy-pentyl]-ureido}-pentanedioic acid]
- Ki (PSMA): 7.53 nM

Compound: O=C(O)CCC(NC(=O)NC(CCCCNC(=O)CCCCCCC(=O)NCCCCCCN(CC(=O)O)Cc1ccccn1)C(=O)O)C(=O)O (centres unmarked) [Compound L4, 2-[3-(1-Carboxy-5-{7-[6-(carboxymethyl-pyridin-2-ylmethyl-amino)-hexylcarbamoyl]-heptanoylamino}-pentyl)-ureido]-pentanedioic acid]
- Ki (PSMA): 2.54 nM

Compound: O=C(O)CCC(NC(=O)NC(CCCCNC(=O)CCCCCCC(=O)NCCCCC(C(=O)O)N(Cc1ccccn1)Cc1ccccn1)C(=O)O)C(=O)O.[Br-].[C-]#[O+].[C-]#[O+].[C-]#[O+].[Re+] (stereo not drawn) [ReL3, Tricarbonyl(2-[3-(5-{7-[5-(bis-pyridin-2-ylmethyl-amino)-5-carboxy-pentylcarbamoyl]-heptanoylamino}-1-carboxy-pentyl)-ureido]-pentanedioic acid)rehenium bromide]
- Ki (PSMA): 10.3 nM

Compound: O=C(O)CCC(NC(=O)NC(CCCCNC(=O)CCCCCCC(=O)NCCCCCCN(CC(=O)[O][Re])Cc1ccccn1)C(=O)O)C(=O)O.[C-]#[O+].[C-]#[O+].[C-]#[O+] (stereo not drawn) [ReL4, Tricarbonyl(2-[3-(1-carboxy-5-{7-[6-(carboxymethyl-pyridin-2-ylmethyl-amino)-hexylcarbamoyl]-heptanoylamino}-pentyl)-ureido]-pentanedioic acid) rhenium]
- Ki (PSMA): 0.17 nM
- fold higher PSMA inhibitory potency than ReL7 (PSMA; relative to ReL7): about 12 fold

Compound: O=C(O)CCC(NC(=O)NC(CCCCNC(=O)CCCCCCC(=O)NC(CCCCNC(=O)CN1CCN(CC(=O)O)CCN(CC(=O)O)CCN(CC(=O)O)CC1)C(=O)O)C(=O)O)C(=O)O (centres unmarked) [DOTA-L1, 2-{3-[1-Carboxy-5-(7-{1-carboxy-5-[2-(4,7,10-tris-carboxymethyl-1,4,7,10tetraaza-cyclododec-1-yl)-acetylamino]-pentylcarbamoyl}-heptanoylamino)-pentyl]-ureido}-pentanedioic acid]
- IC50 (PSMA): 0.8 nM
